What follows are molecules tested against human full-length BTK Kinase (Homo sapiens (Human), UniProt Q06187) (assay: Human BTK LanthaScreen Assay (TR-FRET)). Details: 50 μM ATP, FAM-Srctide peptide substrate, read-out: BTK Inhibition IC50.
Type: biochemical
Excerpt: Human BTK LanthaScreen Assay

Chain of human full-length BTK Kinase (Q06187 whole entry): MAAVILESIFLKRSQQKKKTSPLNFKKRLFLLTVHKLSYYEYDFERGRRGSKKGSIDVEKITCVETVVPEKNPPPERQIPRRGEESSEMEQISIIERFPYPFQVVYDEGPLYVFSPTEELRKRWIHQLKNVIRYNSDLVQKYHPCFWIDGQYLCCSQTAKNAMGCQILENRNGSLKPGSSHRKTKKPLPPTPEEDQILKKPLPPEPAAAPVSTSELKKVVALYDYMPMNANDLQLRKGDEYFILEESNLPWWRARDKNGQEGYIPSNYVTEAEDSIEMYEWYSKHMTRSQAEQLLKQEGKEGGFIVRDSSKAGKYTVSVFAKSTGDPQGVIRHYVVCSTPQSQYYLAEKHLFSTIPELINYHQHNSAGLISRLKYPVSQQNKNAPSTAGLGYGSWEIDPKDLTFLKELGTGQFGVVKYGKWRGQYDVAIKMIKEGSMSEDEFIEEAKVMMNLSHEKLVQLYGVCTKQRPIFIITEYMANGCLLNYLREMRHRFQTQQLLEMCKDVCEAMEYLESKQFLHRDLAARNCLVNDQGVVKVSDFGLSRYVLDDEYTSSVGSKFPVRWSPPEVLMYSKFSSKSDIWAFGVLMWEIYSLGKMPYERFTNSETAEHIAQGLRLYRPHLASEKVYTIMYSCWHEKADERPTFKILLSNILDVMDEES

Row | Structure (SMILES) | IC50 [nM]
1 | N#CN1CCCC(n2nc(-c3ccc(Sc4ccccc4)cc3)c(C(N)=O)c2N)C1 (stereo not drawn) [Example 125, 5-amino-1-(1-cyanopiperidin-3-yl)-3-[4-(phenylthio)phenyl]-1H-pyrazole-4-carboxamide] | 0.4
2 | Cc1ccc(Oc2ccc(-c3nn(C4CCCN(C#N)C4)c(N)c3C(N)=O)cc2)cc1C (stereo not drawn) [Example 16, 5-amino-1-(1-cyanopiperidin-3-yl)-3-[4-(3,4-dimethylphenoxy)phenyl]-1H-pyrazole-4-carboxamide] | 1.28
3 | Cc1cccc(Cc2ccc(-c3nn(C4CCCN(C#N)C4)c(N)c3C(N)=O)cc2)c1 (stereo not drawn) [Example 68, 5-amino-1-(1-cyanopiperidin-3-yl)-3-[4-(3-methylbenzyl)phenyl]-1H-pyrazole-4-carboxamide] | 1.9
4 | N#CN1CCCC(n2nc(-c3ccc(Oc4ccc(F)c(F)c4F)cc3)c(C(N)=O)c2N)C1 (stereo not drawn) [Example 61, 5-amino-1-(1-cyanopiperidin-3-yl)-3-[4-(2,3,4-trifluorophenoxy)phenyl]-1H-pyrazole-4-carboxamide] | 5.1
5 | N#CN1CC(n2nc(-c3ccc(Oc4ccccc4)cc3)c(C(N)=O)c2N)C1 [Example 9, 5-amino-1-(1-cyanoazetidin-3-yl)-3-(4-phenoxyphenyl)-1H-pyrazole-4-carboxamide] | 23.3
6 | N#CN1CCCC(n2nc(-c3ccc(Sc4ccc(Cl)cc4)cc3)c(C(N)=O)c2N)C1 (stereo not drawn) [Example 124, 5-amino-3-{4-[(4-chlorophenyl)thio]phenyl}-1-(1-cyanopiperidin-3-yl)-1H-pyrazole-4-carboxamide] | 0.74
7 | N#CCN1CC2CC1CC2n1nc(-c2ccc(Oc3ccccc3)cc2)c(C(N)=O)c1N (stereo not drawn) [Example 12, 5-amino-1-[2-(cyanomethyl)-2-azabicyclo[2.2.1]hept-5-yl]-3-(4-phenoxyphenyl)-1H-pyrazole-4-carboxamide] | 54.2
8 | N#CN1CCOCC(n2nc(-c3ccc(Oc4ccccc4)cc3)c(C(N)=O)c2N)C1 (stereo not drawn) [Example 10, 5-amino-1-(4-cyano-1,4-oxazepan-6-yl)-3-(4-phenoxyphenyl)-1H-pyrazole-4-carboxamide] | 13.5
9 | N#CN1CCCC(n2nc(-c3ccc(Cc4ccc(F)c(F)c4)cc3)c(C(N)=O)c2N)C1 (stereo not drawn) [Example 83, 5-amino-1-(1-cyanopiperidin-3-yl)-3-[4-(3,4-difluorobenzyl)phenyl]-1H-pyrazole-4-carboxamide] | 15.3
10 | N#CN1CCCC(n2nc(-c3ccc(Oc4ccc(F)cc4Cl)cc3)c(C(N)=O)c2N)C1 (single isomer, unassigned) [Example 36] | 25.3
11 | NC(=O)c1c(-c2ccc(Oc3ccc(F)cc3F)cc2)nn([C@@H]2CCCN(C(=O)/C=C/CCO)C2)c1N [Example 141, 5-amino-3-[4-(2,4-difluorophenoxy)phenyl]-1-{(3R)-1-[(2E)-5-hydroxypent-2-enoyl]piperidin-3-yl}-1H-pyrazole-4-carboxamide] | 58
12 | N#CN1CCCC(n2nc(-c3cccc(Oc4ccc(OC(F)(F)F)c(F)c4)c3)c(C(N)=O)c2N)C1 (stereo not drawn) [Example 106, 5-amino-1-(1-cyanopiperidin-3-yl)-3-{3-[3-fluoro-4-(trifluoromethoxy)phenoxy]phenyl}-1H-pyrazole-4-carboxamide] | 58
13 | N#CN1CCC[C@@H](n2nc(-c3ccc(Cc4ccccc4Cl)cc3)c(C(N)=O)c2N)C1 [Example 72, (R)-5-amino-3-(4-(2-chlorobenzyl)phenyl)-1-(1-cyanopiperidin-3-yl)-1H-pyrazole-4-carboxamide] | 0.54
14 | N#CN1CCCC(n2nc(-c3ccc(Oc4ccccc4C(F)(F)F)cc3)c(C(N)=O)c2N)C1 (stereo not drawn) [Example 52, 5-amino-1-(1-cyanopiperidin-3-yl)-3-{4-[2-(trifluoromethyl)phenoxy]-phenyl}-1H-pyrazole-4-carboxamide] | 2.9
15 | Cc1ccc(Oc2ccc(-c3nn(C4CCCN(C#N)C4)c(N)c3C(N)=O)cc2)nc1 (single isomer, unassigned) [Example 114] | 10.1
16 | N#CN1CCCC(n2nc(-c3ccc(Cc4ccc(F)c(F)c4)cc3)c(C(N)=O)c2N)C1 (single isomer, unassigned) [Example 84] | 5.6
17 | NC(=O)c1c(-c2ccc(Oc3ccc(Cl)cc3)cc2)nn([C@@H]2CCCN(C(=O)/C=C/C(F)F)C2)c1N [Example 133, 5-amino-3-[4-(4-chlorophenoxy)phenyl]-1-{(3R)-1-[(2E)-4,4-difluorobut-2-enoyl]piperidin-3-yl}-1H-pyrazole-4-carboxamide] | 0.38
18 | Cc1ccc(Oc2ccc(-c3nn(C4CCCN(C#N)C4)c(N)c3C(N)=O)cc2)c(F)c1 (stereo not drawn) [Example 39, 5-amino-1-(1-cyanopiperidin-3-yl)-3-[4-(2-fluoro-4-methylphenoxy)phenyl]-1H-pyrazole-4-carboxamide] | 1.1
19 | Cc1cc(Oc2ccc(-c3nn(C4CCCN(C#N)C4)c(N)c3C(N)=O)cc2)ccc1Cl (stereo not drawn) [Example 40, 5-amino-3-[4-(4-chloro-3-methylphenoxy)phenyl]-1-(1-cyanopiperidin-3-yl)-1H-pyrazole-4-carboxamide] | 1.5
20 | N#CN1CCCC(n2nc(-c3cccc(Cc4ccc(F)cc4)c3)c(C(N)=O)c2N)C1 (stereo not drawn) [Example 93, 5-amino-1-(1-cyanopiperidin-3-yl)-3-[3-(4-fluorobenzyl)phenyl]-1H-pyrazole-4-carboxamide] | 35

Row | Structure (SMILES) | IC50 [nM]
21 | N#C/C=C/C(=O)N1CCC[C@@H](n2nc(-c3ccc(Oc4ccc(F)cc4F)cc3)c(C(N)=O)c2N)C1 [Example 152, 5-amino-1-{(3R)-1-[(2E)-3-cyanoprop-2-enoyl]piperidin-3-yl}-3-[4-(2,4-difluorophenoxy)phenyl]-1H-pyrazole-4-carboxamide] | 1.5
22 | N#CN1CCCC(n2nc(-c3ccc(Oc4cc(F)c(F)cc4F)cc3)c(C(N)=O)c2N)C1 (stereo not drawn) [Example 59, 5-amino-1-(1-cyanopiperidin-3-yl)-3-[4-(2,4,5-trifluorophenoxy)phenyl]-1H-pyrazole-4-carboxamide] | 8.5
23 | N#CN1CCCC(n2nc(-c3cccc(Oc4ccc(F)c(F)c4)c3)c(C(N)=O)c2N)C1 (stereo not drawn) [Example 105, 5-amino-1-(1-cyanopiperidin-3-yl)-3-[3-(3,4-difluorophenoxy)phenyl]-1H-pyrazole-4-carboxamide] | 55.5
24 | N#CN1CCCC(n2nc(-c3ccc(Oc4ccc(Cl)cn4)cc3)c(C(N)=O)c2N)C1 (stereo not drawn) [Example 108, 5-amino-3-(4-((5-chloropyridin-2-yl)oxy)phenyl)-1-(1-cyanopiperidin-3-yl)-1H-pyrazole-4-carboxamide] | 7.8
25 | C[C@H](O)/C=C/C(=O)N1CCC[C@@H](n2nc(-c3ccc(Oc4ccc(F)cc4F)cc3)c(C(N)=O)c2N)C1 [Example 148, 5-amino-3-[4-(2,4-difluorophenoxy)phenyl]-1-{(3R)-1-[(2E,4S)-4-hydroxypent-2-enoyl]piperidin-3-yl}-1H-pyrazole-4-carboxamide] | 39
26 | N#CN1CCC[C@H](n2nc(-c3ccc(Oc4cccc(C(F)(F)F)n4)cc3)c(C(N)=O)c2N)C1 [Example 117] | 18.9
27 | Cc1cccc(Cc2ccc(-c3nn([C@@H]4CCCN(C#N)C4)c(N)c3C(N)=O)cc2)c1 [Example 69, (R)-5-amino-1-(1-cyanopiperidin-3-yl)-3-(4-(3-methylbenzyl)phenyl)-1H-pyrazole-4-carboxamide] | 0.6
28 | N#CN1CCCC(n2nc(-c3ccc(Cc4ccc(F)c(F)c4)cc3)c(C(N)=O)c2N)C1 (single isomer, unassigned) [Example 85] | 212
29 | NC(=O)c1c(-c2ccc(Oc3ccc(Cl)cc3)cc2)nn([C@@H]2CCCN(C(=O)/C=C/CF)C2)c1N [Example 132, 5-amino-3-[4-(4-chlorophenoxy)phenyl]-1-{(3R)-1-[(2E)-4-fluorobut-2-enoyl]piperidin-3-yl}-1H-pyrazole-4-carboxamide] | 1.1
30 | Cc1c(F)cccc1Oc1ccc(-c2nn(C3CCCN(C#N)C3)c(N)c2C(N)=O)cc1 (stereo not drawn) [Example 54, 5-amino-1-(1-cyanopiperidin-3-yl)-3-[4-(3-fluoro-2-methylphenoxy)phenyl]-1H-pyrazole-4-carboxamide] | 1.2
31 | Cc1ccc(Oc2ccc(-c3nn(C4CCCN(C#N)C4)c(N)c3C(N)=O)cc2)cc1C (single isomer, unassigned) [Example 17] | 0.4
32 | N#CN1CCCC(n2nc(-c3ccc(Oc4ccccc4Cl)cc3)c(C(N)=O)c2N)C1 (stereo not drawn) [Example 56, 5-amino-3-[4-(2-chlorophenoxy)-phenyl]-1-(1-cyanopiperidin-3-yl)-1H-pyrazole-4-carboxamide] | 1.3
33 | Cc1ccc(Oc2ccc(-c3nn(C4CCCN(C#N)C4)c(N)c3C(N)=O)cc2)nc1 (single isomer, unassigned) [Example 113] | 264
34 | N#CN1CCCC(n2nc(-c3ccc(Cc4ccc(F)cc4F)cc3)c(C(N)=O)c2N)C1 (stereo not drawn) [Example 80, 5-amino-1-(1-cyanopiperidin-3-yl)-3-[4-(2,4-difluorobenzyl)phenyl]-1H-pyrazole-4-carboxamide] | 15.6
35 | C=C(F)C(=O)N1CCC[C@@H](n2nc(-c3ccc(Oc4ccc(F)cc4F)cc3)c(C(N)=O)c2N)C1 [Example 150, 5-amino-3-[4-(2,4-difluorophenoxy)phenyl]-1-[(3R)-1-(2-fluoroacryloyl)piperidin-3-yl]-1H-pyrazole-4-carboxamide] | 5.3
36 | N#CN1CCCC(n2nc(-c3ccc(Oc4ccc(Cl)cn4)cc3)c(C(N)=O)c2N)C1 (single isomer, unassigned) [Example 109] | 128
37 | Cc1cccc(Cc2ccc(-c3nn([C@H]4CCCN(C#N)C4)c(N)c3C(N)=O)cc2)c1 [Example 70, (S)-5-amino-1-(1-cyanopiperidin-3-yl)-3-(4-(3-methylbenzyl)phenyl)-1H-pyrazole-4-carboxamide] | 21.9
38 | N#CN1CCCC(n2nc(-c3ccc(Oc4ncc(F)cc4F)cc3)c(C(N)=O)c2N)C1 (stereo not drawn) [Example 115, 5-amino-1-(1-cyanopiperidin-3-yl)-3-{4-[(3,5-difluoropyridin-2-yl)oxy]phenyl}-1H-pyrazole-4-carboxamide] | 3.7
39 | N#CN1CCCC(n2nc(-c3ccc(Oc4ccccc4)cc3)c(C(N)=O)c2N)C1 (single isomer, unassigned) [Example 3] | 3.3

Reference: patent US10266513B2 (Pfizer Inc., priority 2012, dated 2019)
